Assay results from PMC7961380, “A Systematic Study of the In Vitro Pharmacokinetics and Estimated Human In Vivo Clearance of Indole and Indazole-3-Carboxamide Synthetic Cannabinoid Receptor Agonists Detected on the Illicit Drug Market” (Molecules, 2021).

Columns and labels:
[1] = HLM, ref 14 (THJ-018, THJ-2201), 15 (NNEI, MN-18), 106 (NM-2201), 107 (BIM-2201), 108 (STS-135), 16 (AB-PINACA, 5F-AB-PINACA), 54 (5F-MDMB-PINACA), 69 (AB-FUBINACA), 17 (ADB-FUBINACA), 97 (FDU-PB-22, FUB-PB-22), cited from earlier work; for CLint micr / t1/2: 95 (Cumyl-PICA, 5F-Cumyl-PICA), 109 (5F-APP-PICA, 5F-APP-PINACA; for CLint micr: 73 (5F-AMB-PINACA); for t1/2 / CLint: 57 (AMB-4en-PICA); for t1/2: 73 (AMB-PINACA, 5F-AMB-PINACA)
[2] = Plasma protein binding by equilibrium dialysis; type: in vitro ADME, human; conditions: 37 °C
Protocol: Plasma protein binding was assessed by equilibrium dialysis in a 96-well dialysis block (HTDialysis, Ledyard, CT, USA). Dialysis membranes (12–14 kDa) were soaked in deionised water for at least 60 min. Membranes were soaked overnight at 4 °C in ethanol:water 20:80% v/v and then rinsed with deionised water immediately prior to use. […] Spiked plasma (150 µL) was dialysed against isotonic phosphate buffer (pH 7.4) (150 µL) for 5 h at 37 °C with shaking at 100 rpm. Thermal degradation controls for each test compound were kept at 37 °C and 4 °C. Blank control plasma and buffer were included in the incubation. Following incubation, dialysed plasma samples and thermal degradation controls (50 µL) were added to drug-free buffer (50 µL), and dialysed buffer samples (50 µL) were added to drug-free plasma (50 µL). […] Supernatant (150 µL) was added to 50 µL deionised water and samples were analysed by UPLC-MS/MS as described above. Dialysed buffer from each well was tested for protein contamination using BCA protein assay reagent to determine whether membranes had been compromised.
Bu = Analyte/IS ratio determined in buffer side (2) Fraction unbound, fu=(100−% bound)/100

[3] = Metabolic stability, pooled human liver microsome incubations
Protocol: Total incubation volume was 500 µL. Procedure: Test compound working solutions (50 µM in potassium phosphate buffer (pH 7.4)) were prepared (<1% DMSO). pHLM were thawed and diluted in potassium phosphate buffer (pH 7.4). […] Reactions were quenched in 200 µL ACN spiked with donepezil (IS, 50 ng mL^−1). […] Samples were analysed by UPLC-MS/MS in a 96 deep-well 2 mL plate. Each SCRA was incubated at least in triplicate but additional incubations were carried out across a number of analytical batches, giving greater replication and a greater understanding of system variability. Microsomal scaling factors used for human liver microsome incubations in the literature vary. Intrinsic clearance and predicted in vivo clearance rates calculated using alternative scaling factors found in the literature is provided in Section S6 of the supplementary information, to aid comparison of data between publications.
Equations used for in vitro intrinsic clearance calculation and human in vivo clearance […]
The equations used for in vitro intrinsic clearance calculation and human in vivo clearance estimation […]
Microsomal clearance (HLM incubations) in mL min-1 mg microsomal protein-1 [3]
Intrinsic clearance (whole-liver dimensions) (HLM incubations) in mL min-1 kg-1 [3] CL = k x V x [Liver](g) x SF Eqn. 7 […]
mg g microsomal protein-1 [7]
Intrinsic clearance (whole-liver dimensions) (HHep incubations) in mL min-1 kg-1 [4] CL = k x V x hepatocytes/g liver x [Liver](g) Eqn. 8 […]
Where: hepatocytes/g liver = 107x10^6 cells/g liver
Hepatic clearance in mL min-1 kg-1 [3]
[…] Eqn. 9
Where: Q = hepatic blood flow, 21 mL min-1 kg-1 [9]; fu = fraction unbound (plasma); CLint = […]
Estimated human hepatic extraction ratio [5]
Intrinsic clearance data – pooled human liver microsome incubations […]
table S4-28. Intrinsic clearance and predicted in vivo data calculated using alternative microsomal scaling factors found in the literature – 32 [10] and 45 [11] mg microsomal protein per gram liver – are provided in tables S29 and S30, respectively.

[4] = system: pooled human cryopreserved hepatocytes (pHHeps); assay: Metabolic stability, pooled human cryopreserved hepatocyte incubations
[5] = Short-term plasma stability with and without esterase inhibitors; conditions: 3 h, 37 °C
Protocol: The pooled plasma used for both plasma stability and plasma binding studies originated from 50 donors, collected as whole blood from donors in the United States at an FDA-approved collection center, processed into plasma by centrifugation and immediately frozen (Innovative Research; Novi, MI, USA) and purchased from Patricell (Nottingham, UK). […] Stock solutions were prepared in DMSO. […] For incubations without inhibitor an equivalent volume of DMSO was included. Plasma mixture was pre-incubated at 37 °C for 5 min. Test compounds (5 µM) and procaine (positive control, 50 µM) were added to pre-warmed plasma mixture containing inhibitors. Incubation volume was 1 mL. Samples were mixed and 80 µL was immediately sampled and quenched into 200 µL ACN spiked with donepezil (internal standard (IS), 50 ng mL^−1). […] Peak area ratio of analyte to IS was used to determine half-lives of test compounds in plasma, both with and without the presence of esterase inhibitors.
The human plasma used was pooled from 50 donors, and was collected as whole blood from donors in
the United States at an FDA-approved collection center, processed into plasma by centrifugation and
The stability of the tested SCRAs, select metabolites and procaine control in pooled human plasma over
inhibitors bis(4-nitrophenyl) phosphate (BNPP) and phenyl methyl sulphonyl fluoride (PMSF) is

[6] = pHLM, scaling factor 32 mg microsomal protein per gram liver
[7] = pHLM, scaling factor 45 mg microsomal protein per gram liver
[8] = pHHeps, 99x10^6 hepatocytes per gram liver

CCCCCn1nc(C(=O)c2cccc3ccccc23)c2ccccc21 [THJ-018]
CLint micr [1]: 36 µL/min/mg
t1/2 [1]: 19.2 min
CLint [1]: 34.2 mL/min/kg

NC(=O)[C@H](Cc1ccccc1)NC(=O)c1cn(CCCCCF)c2ccccc12 [Compound 5F-APP-PICA]
CLint micr [1]: 46 µL/min/mg
t1/2 [1]: 15.1 min

O=C(NC12CC3CC(CC(C3)C1)C2)c1cn(CCCCCF)c2ccccc12 [STS-135, N-(adamantan-1-yl)-1-(5-fluoropentyl)-1H-indole-3-carboxamide]
CLint micr [1]: 222 µL/min/mg
t1/2 [1]: 3.1 min
CLint [1]: 209 mL/min/kg

O=C(c1cccc2ccccc12)c1nc2ccccc2n1CCCCCF [BIM-2201]
CLint micr [1]: 142 µL/min/mg
t1/2 [1]: 4.9 min
CLint [1]: 134.1 mL/min/kg

CCCCCn1nc(C(=O)Nc2cccc3ccccc23)c2ccccc21 [MN-18]
CLint micr [1]: 410 µL/min/mg
t1/2 [1]: 1.71 min
CLint [1]: 469 mL/min/kg

O=C(Oc1cccc2ccccc12)c1cn(CCCCCF)c2ccccc12 [NM-2201]
CLint micr [1]: 88 µL/min/mg
t1/2 [1]: 8.0 min
CLint [1]: 81.6 mL/min/kg

CC(C)(NC(=O)c1cn(CCCCCF)c2ccccc12)c1ccccc1 [5F-Cumyl-PICA]
CLint micr [1]: 390 µL/min/mg
t1/2 [1]: 1.77 min

COC(=O)C1=C(C)NC(C)=C(C(=O)OCCN(C)Cc2ccccc2)C1c1cccc([N+](=O)[O-])c1 (centres unmarked) [nicardipine, reference compound]
fraction unbound at 5 h, 10 µg mL^−1 ([2]; human, pooled human plasma, pH 7.4, equilibrium dialysis 5 h, 10 µg mL^−1, read-out: PPB (%) (converted)): 0.023

COC(=O)[C@H](NC(=O)c1cn(CCCCCF)c2ccccc12)C(C)(C)C [(R)-5F-MDMB-PICA (3), methyl 2-[1-(5-fluoropentyl)-1H-indole-3-carboxamido]-3,3-dimethylbutanoate]
PPB (%) ([2]; equilibrium dialysis 5 h, 10 µg mL^−1): 93.8 ± 0.15%
Fraction Unbound (fu) ([2]; equilibrium dialysis 5 h, plasma): 0.062 ± 0.0015
Predicted In Vivo Hepatic Clearance, CLH ([3]; from pHLM CLint, well-stirred model with plasma fu, Q 21 mL min^−1 kg^−1): 7.22 ± 0.05 mL/min/kg
Hepatic extraction ratio, EH ([3]; from pHLM incubations): 0.34 ± 0.002
T1/2 ([3]; pHLM 0.5 mg mL^−1, 0.5 µM, NADPH, 37 °C, n ≥ 3 ± SD): 11 ± 0.11 min
% parent compound remaining, Average ([3]; pHLM, 3 min): 72.6%
% parent compound remaining, Average ([3]; pHLM, 6 min): 62.5%
% parent compound remaining, Average ([3]; pHLM, 9 min): 52.6%
% parent compound remaining, Average ([3]; pHLM, 15 min): 36.8%
% parent compound remaining, Average ([3]; pHLM, 30 min): 16.4%
Intrinsic clearance, CLint ([3]; pHLM, alternative microsomal scaling factor 32 mg microsomal protein per gram liver): 108 ± 1.13 mL/min/kg
Intrinsic clearance, CLint ([3]; pHLM, alternative microsomal scaling factor 45 mg microsomal protein per gram liver): 152 ± 1.59 mL/min/kg
Microsomal Intrinsic Clearance, CLint micr ([3]; pHLM, n ≥ 3 ± SD): 0.132 ± 0.001 mL min^−1 mg Microsomal Protein^−1
Hepatic extraction ratio, EH [3, 6]: 0.24 ± 0.002
Predicted in vivo hepatic clearance, CLH [3, 6]: 5.09 ± 0.04 mL/min/kg
Hepatic extraction ratio, EH [3, 7]: 0.31 ± 0.002
Predicted in vivo hepatic clearance, CLH [3, 7]: 6.51 ± 0.05 mL/min/kg
Predicted In Vivo Hepatic Clearance, CLH ([4]; from pHHeps CLint, well-stirred model with plasma fu, Q 21 mL min^−1 kg^−1): 6.27 ± 0.74 mL/min/kg
Hepatic extraction ratio, EH ([4]; from pHHeps incubations): 0.30 ± 0.035
T1/2 ([4]; pHHeps 0.25 million cells mL^−1, 0.5 µM, 37 °C, n ≥ 3 ± SD): 54 ± 9.4 min
Hepatic extraction ratio, EH [4, 8]: 0.28 ± 0.034
Predicted in vivo hepatic clearance, CLH [4, 8]: 5.94 ± 0.72 mL/min/kg
% parent compound remaining, Average ([4]; pHHeps, 3 min): 87.4%
% parent compound remaining, Average ([4]; pHHeps, 6 min): 85.8%
% parent compound remaining, Average ([4]; pHHeps, 9 min): 88.6%
% parent compound remaining, Average ([4]; pHHeps, 15 min): 78.8%
% parent compound remaining, Average ([4]; pHHeps, 30 min): 64.9%
% parent compound remaining, Average ([4]; pHHeps, 45 min): 51.8%
% parent compound remaining, Average ([4]; pHHeps, 60 min): 43.7%
Intrinsic clearance, CLint ([4]; pHHeps, alternative hepatocyte cell density 99x10^6 hepatocytes per gram liver): 134 ± 22.3 mL/min/kg
Parent Compound Remaining (%), Esterase Inhibitors ([5]; pH 7.4, BNPP and PMSF 500 µM each): 97.7 ± 5.6%
Parent Compound Remaining (%), No Esterase Inhibitors ([5]; pH 7.4, pooled human plasma): 103.2 ± 14.5%

CCCCCn1nc(C(=O)N[C@H](C(N)=O)C(C)C)c2ccccc21 [AB-PINACA]
CLint micr [1]: 37 µL/min/mg
t1/2 [1]: 18.7 min
CLint [1]: 35 mL/min/kg

CCCCCn1cc(C(=O)Nc2cccc3ccccc23)c2ccccc21 [NNEI]
CLint micr [1]: 300 µL/min/mg
t1/2 [1]: 2.29 min
CLint [1]: 350 mL/min/kg

NC(=O)[C@H](Cc1ccccc1)NC(=O)c1nn(CCCCCF)c2ccccc12 [5F-APP-PINACA]
CLint micr [1]: 202 µL/min/mg
t1/2 [1]: 3.4 min

NC(=O)[C@H](Cc1ccccc1)NC(=O)c1nn(CC2CCCCC2)c2ccccc12
CLint micr [1]: 133 µL/min/mg
t1/2 [1]: 5.2 min

CCCCCn1cc(C(=O)NC(C)(C)c2ccccc2)c2ccccc21 [Cumyl-PICA, 1-pentyl-N-(2-phenylpropan-2-yl)-1H-indole-3-carboxamide]
CLint micr [1]: 120 µL/min/mg
t1/2 [1]: 5.92 min

O=C(Oc1cccc2ccccc12)c1cn(Cc2ccc(F)cc2)c2ccccc12 [FDU-PB-22]
CLint micr [1]: 56 µL/min/mg
t1/2 [1]: 12.4 min
CLint [1]: 52.7 mL/min/kg

O=C(c1cccc2ccccc12)c1nn(CCCCCF)c2ccccc12 [THJ-2201]
CLint micr [1]: 64 µL/min/mg
t1/2 [1]: 10.8 min
CLint [1]: 60.8 mL/min/kg

CC(C)[C@H](NC(=O)c1nn(CCCCCF)c2ccccc12)C(N)=O [Compound 5F-AB-PINACA]
CLint micr [1]: 19 µL/min/mg
t1/2 [1]: 35.9 min
CLint [1]: 18 mL/min/kg

O=C(Oc1cccc2cccnc12)c1cn(Cc2ccc(F)cc2)c2ccccc12 [FUB-PB-22]
CLint micr [1]: 60 µL/min/mg
t1/2 [1]: 11.5 min
CLint [1]: 57.1 mL/min/kg

CCCCCn1nc(C(=O)N[C@H](C(=O)OC)C(C)C)c2ccccc21 [AMB-PINACA, methyl (1-pentyl-1H-indazole-3-carbonyl)valinate]
t1/2 [1]: 1.1 min
